{"source": "patent EP4682156A1", "about": "“LINKER AND DRUG CONJUGATE USING SAME, AND ANTIBODY-DRUG CONJUGATE AND USE THEREOF” (Shanghai Affinity Biopharmaceutical Co., Ltd., priority 2023, dated 2024)", "key": {"cathepsin L [1]": {"molecular_target": "T1, cathepsin L (Homo sapiens, UniProt P07711)", "T1 sequence (P07711 114-333)": "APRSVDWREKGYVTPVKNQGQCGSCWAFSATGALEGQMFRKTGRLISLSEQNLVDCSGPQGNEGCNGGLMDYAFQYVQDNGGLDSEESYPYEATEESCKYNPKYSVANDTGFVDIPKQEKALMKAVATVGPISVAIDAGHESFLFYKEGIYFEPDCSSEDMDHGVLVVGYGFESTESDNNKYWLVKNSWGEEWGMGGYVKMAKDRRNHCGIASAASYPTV", "assay": "Enzymatic cleavage by cathepsin L, released DXD quantified by HPLC", "format": "biochemical", "conditions": "pH 6"}, "cathepsin B": {"molecular_target": "cathepsin B (Homo sapiens, UniProt P07858)", "assay": "Enzymatic cleavage by cathepsin B, released DXD quantified by HPLC", "format": "biochemical", "conditions": "20 hours of action of cathepsin B, 37°C, pH 5.0", "procedure": "(§1) About 25 mg of DXD reference substance was accurately weighed and placed in a 5 mL volumetric flask. DMSO was added to the scale mark and the mixture was mixed to prepare a 10 mM solution which was marked as the standard stock solution. The standard stock solution was taken and prepared into standard solutions with concentrations of 20nmol/mL, 10nmol/mL, 5nmol/mL, 2nmol/mL, 1nmol/mL, and 0.2nmol/mL. 10uL was taken and injected into HPLC, the peak area was recorded. The linear equation was calculated by using the peak area as the ordinate and the concentration as the abscissa.\n(§2) • chromatographic column: Agilent Eclipse Plus C18 5um, 4.6*250mm • Fluorescence detector: […] • Mobile phase A: 0.1%TFA/H2O B: ACN • Flow rate: 1ml/min • Injection volume: 10uL\n• Activation buffer: 25mM MES, 5mM DTT, pH 5.0 • Assay buffer: 25 mM MES, pH 5.0. • Cathepsin B: 100 µg/mL in activation buffer, incubated at room temperature for 15 minutes\nPreparation of sample solution: An appropriate amount of MI-PEG6-GGFL-AM-DXD and EMC-GGFG-AM-DXD were respectively weighed and added with a certain amount of DMSO solution to make the concentration of the stock solution thereof being 10 umol/mL. Then 10uL of the stock solution was respectively taken and added with 80uL of DMSO to dilute to 1 umol/mL. […]"}, "[2]": {"assay": "Stability in monkey heart homogenate", "format": "in vitro ADME", "conditions": "20 hours, 37°C, pH 5.0", "procedure": "(§3) • Assay buffer: 25 mM MES, pH 5.0. • Protein precipitation agent: DMSO/MEOH = 1:1\n(§4) Preparation of sample solution: An appropriate amount of MI-PEG6-GGFL-AM-DXD and EMC-GGFG-AM-DXD were weighed and added with a certain amount of DMSO solution to make the concentration of the stock solution thereof being 10 umol/mL. Then 10uL of the stock solution were taken and added with 80uL of DMSO to dilute to 1 umol/mL. Then pure water was added in a ratio of 1:4 to dilute the sample solution to a concentration of 0.2 umol/mL.\n(§5) An appropriate amount of fast frozen heart by liquid nitrogen was placed in a 4 mL EP tube and weighed. Assay buffer with pH 5.0 was added at a mass-to-volume ratio of 1:5. The tissue was homogenized using a tissue grinder for 3 min. The heart homogenate was then centrifuged at 12,000 rpm for 5 min. The supernatant was collected and stored in a -40°C refrigerator for later use.\n(§6) The sample solution and the heart homogenate were respectively taken at a volume ratio of 1:9 and shaken thoroughly. Another sample solution and buffer solution (pH 5.0) were also shaken thoroughly at a volume ratio of 1:9 as a blank control solution. The solution was placed in a 37°C constant temperature water bath. 30uL was taken at 0h, 2h, 4h, and 20h, and added with 90uL of protein precipitation agent and shaken thoroughly. […]"}, "[3]": {"assay": "Stability in monkey liver homogenate", "format": "in vitro ADME", "conditions": "20 hours, 37°C, pH 5.0", "procedure": "as §3, §4\nas §5, with “liver” for “heart”\nas §6, with “liver” for “heart”"}, "[4]": {"assay": "Stability in human plasma", "conditions": "20 hours, 37°C"}, "[5]": {"assay": "Activation in CT26 tumor homogenate (tumor homogenate 2)", "conditions": "tumor homogenate 2 (CT26), 20 hours, 37°C, pH 5.0"}, "[6]": {"assay": "Activation in human gastric cancer tumor homogenate (tumor homogenate 1)", "conditions": "tumor homogenate 1, after 20 hours, 37°C, pH 5.0"}, "cathepsin L [7]": {"molecular_target": "T1, cathepsin L", "assay": "Enzymatic cleavage by cathepsin L, released DXD quantified by HPLC", "format": "biochemical", "conditions": "within 20 h", "procedure": "as §1, §2\n• Assay Buffer: 50mM MES, 5mM DTT, 1mM EDTA, 0.005% (w/v) Brij-35, pH6.0. • Cathepsin L: 100 µg/mL in assay buffer, incubated on ice for 15 min.\nPreparation of sample solution: An appropriate amount of L-AM-DXD was weighed and added with a certain amount of DMSO solution to make the concentration of the stock solution being 10 umol/mL. Then 10uL of the stock solution was taken and added with 80uL of DMSO to dilute to 1 umol/mL. Then pure water was added in a ratio of 1:4 to dilute the sample solution to a concentration of 0.2 umol/mL. […]"}, "[8]": {"assay": "Stability in human plasma", "format": "in vitro ADME", "conditions": "within 20 hours", "procedure": "• PBS buffer: pH = 7.2 • Protein precipitation agent: DMSO/MEOH = 1:1\nas §4, with “and GGFG-AM-DXD” for “and EMC-GGFG-AM-DXD”, “solution was” for “solution were”\nAn appropriate amount of sample was weighed and prepared into a 1 mM solution with DMSO. Human plasma was added at a volume ratio of 1:9 and the solution was incubated in a 37°C incubator. Samples were taken after 0, 2, 4, 6, and 20 h. DMSO/MEOH (1:1) was added at a volume ratio of 1:3 to remove protein. The solution was centrifuged at 12,000 rpm for 5 min and the supernatant was collected. The HPLC method was as described in 1.2 of Example 4."}, "Human Fibrosarcoma": {"system": "Human Fibrosarcoma", "assay": "Drug efficacy study of drug conjugates on human fibrosarcoma tumor model", "format": "in vivo, Nude mice"}, "[9]": {"conditions": "5 µmol/kg (1/10 MTD) once a week for 3 weeks, Day 20"}}, "note": "*1 amine or outer side, *2 acyl side, *3 side chain or, on linkers, in order; H or OH if unused. Where a SMILES comes first, the peptide text is derived from it. [ ]: non-standard residue; d: D form. The star is where a group is joined. Exatecan = CC[C@@]1(O)C(=O)OCc2c1cc1n(c2=O)Cc2c-1nc1cc(F)c(C)c3c1c2[C@@H](N*)CC3; Hexanoyl(6-maleimido) = O=C1C=CC(=O)N1CCCCCC(=O)*; Propanoyl(3-maleimido) = O=C1C=CC(=O)N1CCC(=O)*; PEG6 = NCCOCCOCCOCCOCCOCCOCCC(=O)O; NHCH2OCH2CO = O=C(COCN[*:1])[*:2]", "data": [{"smiles": "CC[C@@]1(O)C(=O)OCc2c1cc1n(c2=O)Cc2c-1nc1cc(F)c(C)c3c1c2[C@@H](NC(=O)COCNC(=O)CNC(=O)[C@H](Cc1ccccc1)NC(=O)CNC(=O)CNC(=O)CCCCCN1C(=O)C=CC1=O)CC3", "note": "[EMC-GGFG-AM-DXD, reference compound] ({Hexanoyl(6-maleimido)}-GGFG[NHCH2OCH2CO]-Exatecan)", "values": [{"measurement": "DXD produced, share of the reaction substrate (enzymatic cleavage activation efficiency)", "setting": "cathepsin L [1]", "value": 27.8, "unit": "%"}, {"measurement": "DXD produced by enzymatic cleavage, share of the reaction substrate", "setting": "cathepsin B", "value": 45.2, "unit": "%"}, {"measurement": "DXD produced, share of the substrate", "setting": "[2]", "value": 7.41, "unit": "%"}, {"measurement": "DXD produced, share of the substrate", "setting": "[3]", "value": 27.6, "unit": "%"}, {"measurement": "DXD produced, share of the substrate", "setting": "[4]", "value": 2.88, "unit": "%"}, {"measurement": "substrate contents", "setting": "[4]", "value": 97.1, "unit": "%"}]}, {"smiles": "CC[C@@]1(O)C(=O)OCc2c1cc1n(c2=O)Cc2c-1nc1cc(F)c(C)c3c1c2[C@@H](NC(=O)COCNC(=O)[C@H](CC(C)C)NC(=O)[C@H](Cc1ccccc1)NC(=O)CNC(=O)CNC(=O)CCOCCOCCOCCOCCOCCOCCNC(=O)CCN1C(=O)C=CC1=O)CC3", "note": "[GGFL-AM-DXD] ({Propanoyl(3-maleimido)-PEG6}-GGFL[NHCH2OCH2CO]-Exatecan)", "values": [{"measurement": "DXD produced, share of the substrate", "setting": "[5]", "value": 98.7, "unit": "%"}, {"measurement": "DXD produced, share of the substrate", "setting": "[6]", "value": 94.2, "unit": "%"}]}, {"smiles": "CC[C@@]1(O)C(=O)OCc2c1cc1n(c2=O)Cc2c-1nc1cc(F)c(C)c3c1c2[C@@H](NC(=O)COCNC(=O)[C@H](CC(C)C)NC(=O)[C@H](Cc1ccccc1)NC(=O)CNC(=O)CNC(=O)CCOCCOCCOCCOCCOCCOCCNC(=O)CCN1C(=O)C=CC1=O)CC3", "note": "[S7, MI-PEG6-GGFL-AM-DXd] ({Propanoyl(3-maleimido)-PEG6}-GGFL[NHCH2OCH2CO]-Exatecan)", "values": [{"measurement": "Enzymatic cleavage efficiency %", "setting": "cathepsin L [7]", "value": 98.3, "unit": "%"}, {"measurement": "Generated load %", "setting": "[8]", "value": 1.7, "unit": "%"}, {"measurement": "Substrate content %", "setting": "[8]", "value": 98.3, "unit": "%"}, {"measurement": "Anti-tumor rate% Day 20", "setting": "Human Fibrosarcoma; [9]", "value": 98, "unit": "%"}, {"measurement": "Tumor volume(mm^3) Day 20", "setting": "Human Fibrosarcoma; [9]", "value": 20, "unit": "mm^3"}, {"measurement": "treatment efficacy compared with DXd", "setting": "Human Fibrosarcoma; same dose 5 µmol/kg once a week for 3 weeks", "value": "significantly improved treatment efficacy"}]}]}
